Assays:
[1] = tested on: RBL-2H3 cells; assay: IL-4 secretion inhibitory activity in Basophil cells; type: cell-based; settings: FIG. 8
Method: RBL-2H3 cells were diluted in 10% FBS EMEM medium and divided in a 24-well plate to reach 1×10^5 cells/well. The cells were incubated in a 37° C. incubator for 18 hours or longer.
The test material (Compound 1) was treated at each concentration (at a final concentration of 0, 0.1, 0.5 and 1 μM) under PMA (50 nmol/L) and A23187 (1 μmol/L) stimulation. The cells were incubated in a 37° C. incubator for 24 hours. Then, the reaction was terminated on ice, after the degree of IL-4 secretion in the culture supernatant was measured by IL-4 ELISA kit.

[2] = tested on: JAK1, Tyk2; assay: In vitro cell assay, JAK1, Tyk2 (U2OS cells, IFN-alphaB2); type: cell-based; settings: Homo sapiens, read-out: IC50, Cell Biology JAK1, Tyk2
Method: Furthermore, there is a literature in which U20S cells are associated with JAK1/TYK2 signaling activity and phosphorylation of STAT1 by IFN-alphaB2 and IFN-γ. Accordingly, U2OS cells were prepared for the evaluation of JAK1 and TYK2 as a cell line which strongly expresses STAT1 signals.
The test material was dissolved in DMSO, prepared at 10 mM, divided by 20 μL each, and stored at −20° C.
• EPO: 2000 U/0.5 mL of stock was divided by 50 μL each and stored under refrigeration. • IL-2: 200 μg/ml of stock was prepared, divided by 5 μL each, and stored, and then treated at 2 ng/ml. (IL-2 1 μg/ml=13000 U/ml) • IFN-alphaB2: […] of stock was diluted and used, and then treated to reach 30000 U/ml.
• UT-7/EPO cell assay: MEM-alpha (Gibco, cat #12561-056) was prepared to contain 5% FBS and 1% P/S before use. • NK-92 cell assay: A preparation was made to contain HBSS, 1% FBS and 1% P/S before use. • U2OS cell assay: A preparation was made to contain HBSS, 1% FBS and 1% P/S before use.
The cultured cells were centrifuged (1,000 rpm, 5 minutes) and washed with PBS. The size of cell lines and appropriate reaction concentration thereof were set and the cell lines were seeded in a 96-well plate at 1×10^5 to 10^6 cells/well (50 μL/well). The test material was prepared 4× of the concentration to be treated, and prepared at five to six concentrations by serial dilution of ⅕ each. […]

[3] = target: JAK2 (Homo sapiens, UniProt O60674); assay: ADP-Glo JAK2 kinase assay; type: biochemical; settings: read-out: IC50, In vitro enzyme JAK2
JAK2, sequence (O60674 whole entry, species assumed): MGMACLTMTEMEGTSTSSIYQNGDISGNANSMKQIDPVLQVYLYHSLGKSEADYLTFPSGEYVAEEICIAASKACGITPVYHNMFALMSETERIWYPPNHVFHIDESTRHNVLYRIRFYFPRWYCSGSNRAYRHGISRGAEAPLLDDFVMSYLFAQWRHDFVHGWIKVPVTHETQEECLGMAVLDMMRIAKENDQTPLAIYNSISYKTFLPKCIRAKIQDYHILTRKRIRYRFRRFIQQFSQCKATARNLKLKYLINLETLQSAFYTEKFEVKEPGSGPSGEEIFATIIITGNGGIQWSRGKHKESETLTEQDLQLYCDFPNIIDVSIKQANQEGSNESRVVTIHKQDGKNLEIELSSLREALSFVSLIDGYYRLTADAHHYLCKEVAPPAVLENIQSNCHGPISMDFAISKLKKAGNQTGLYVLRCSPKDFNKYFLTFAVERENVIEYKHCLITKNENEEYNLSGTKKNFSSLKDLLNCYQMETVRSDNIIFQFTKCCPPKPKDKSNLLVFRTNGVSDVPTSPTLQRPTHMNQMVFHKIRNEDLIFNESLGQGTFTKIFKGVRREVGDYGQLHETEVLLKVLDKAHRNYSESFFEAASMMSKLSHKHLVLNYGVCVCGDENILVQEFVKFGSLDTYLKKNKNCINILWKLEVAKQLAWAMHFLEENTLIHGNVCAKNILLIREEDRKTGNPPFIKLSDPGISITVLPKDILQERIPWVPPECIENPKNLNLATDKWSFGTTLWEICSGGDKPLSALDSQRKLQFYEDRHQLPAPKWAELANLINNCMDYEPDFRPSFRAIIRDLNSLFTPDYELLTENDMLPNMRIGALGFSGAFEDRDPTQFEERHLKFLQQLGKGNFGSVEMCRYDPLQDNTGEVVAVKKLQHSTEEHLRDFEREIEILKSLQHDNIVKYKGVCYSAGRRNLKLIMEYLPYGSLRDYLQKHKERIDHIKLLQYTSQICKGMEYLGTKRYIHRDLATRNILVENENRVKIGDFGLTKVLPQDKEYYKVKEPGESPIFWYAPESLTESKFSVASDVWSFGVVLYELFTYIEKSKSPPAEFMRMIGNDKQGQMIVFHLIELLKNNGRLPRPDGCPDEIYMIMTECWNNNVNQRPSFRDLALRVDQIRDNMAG
Method: 10 mM of Compound 1 was diluted in DMSO to prepare samples at four concentrations (5,000 nM, 500 nM, 50 nM and 5 nM). 10 mM of ATP was diluted at 1/40 in 1× kinase buffer to make a preparation. 1 mg/mL of IGFIRtide was used as a stock solution. 100 ng/μL of JAK2 enzyme was diluted at 1/20 in 1× kinase buffer to make a preparation. 1 μL of ATP, 1 μL of IGFIRtide, and 1 μL of Compound 1 prepared as above were mixed, after which 2 μL of JAK2 enzyme was finally added and reacted at 30° C. for 40 minutes. At this time, a tube without JAK2 enzyme was prepared as a blank and a tube without Compound 1 was prepared as a positive control group together (a final concentration of samples was 1,000 nM, 100 nM, 10 nM, and 1 nM).
Then, 5 μL of ADP-glo was added to each tube and reacted at 30° C. for 40 minutes, after which 10 μL of kinase detection reagent was added thereto and reacted at room temperature for 15 minutes. After 18 μL of the reactant was transferred to a 384 well plate, luminescence was measured using a plate reader.

[4] = tested on: DSS-induced animal model (C57BL/6J mice); assay: DSS-induced colitis model; type: in vivo; settings: oral
Method: To induce colitis in C57BL/6J mice, drinking water was treated with 3% dextran sodium sulphate (DSS) and provided each morning for eight days, and a negative control group was provided with 0% DSS.
After mice were grouped into several groups (day O), the mice were orally dosed with 0.5% methylcellulose and Compound 1 obtained according to Preparation Example 1 as a test material at 9 a.m. and 5 p.m. every day from day 1 to day 7. Test animals were autopsied on day 8.
Disease activity index (DAI) was calculated as body weight, fecal […], and fecal blood score to represent the severity of the disease. Body weight and food intake were monitored and evaluated at the start of the study and every 24 hours, and fecal samples were collected on days 0, 3, 5, and 7 and analyzed according to Table 6 below.
After measuring the weight and length of the colon obtained by autopsy, the weight-to-length ratio was calculated.
On day 8, blood was drawn from the heart into a centrifuge tube containing EDTA-K2 anticoagulant. After centrifugation (7000 rpm, 10 minutes, 4° C.), plasma was separated, and KC and MIP-2 were measured by Meso Scale Discovery Kit.
The mRNA was extracted from a portion of large intestine tissues (same location for each animal) to analyze an expression level of MX2 and TNF-alpha in the tissues through qPCR.
The large intestine part fixed with 10% formalin was cut with paraffin and stained with hematoxylin-eosin. The criteria for histological changes in the colon followed Table 7 below.

Q: How did the “IL-4 concentration compared to the negative control group (vehicle)” value ([1]; 0.5 μM and 1 μM) turn out when `C[C@@H]1CN(C(=O)CC#N)CC=C1c1cc(NC(=O)C2CC2)nc2[nH]ccc12` [Compound 1, (S)—N-(4-(1-(2-cyanoacetyl)-3-methyl-1,2,3,6-tetrahydropyridin-4-yl)-1H-pyrrolo[2,3-b]pyridin-6-yl)cyclopropanecarboxamide] was run?
A: remarkably reduced to almost ½ or more

Q: What about the IL-4 secretion ([1]; RBL-2H3 cells, PMA and A23187 stimulation, 24 hours) of the same compound?
A: inhibits IL-4 secretion

Q: What about the IC50 [2] of the same compound?
A: 27 nM

Q: What about the IC50 [3] of the same compound?
A: 68 nM

Q: And the “Disease activity index (DAI)” value ([4]; 90 mg/kg, FIG. 21)?
A: reduced to half that of the control group (vehicle)

Q: What about the “Weight-to-length ratio of colon” value ([4]; FIG. 22) of the same compound?
A: lower value compared to the control group (vehicle)

Q: What about the Histopathological score ([4]; FIG. 24) of the same compound?
A: lowered

Q: And the “KC concentration in plasma” value ([4]; day 8, FIG. 23)?
A: decreased

Q: What about the “MIP-2 concentration in plasma” value ([4]; day 8, FIG. 23) of the same compound?
A: decreased

Q: What about the “Expression level of MX2 in the colon” value ([4]; qPCR, FIG. 23) of the same compound?
A: decreased

Q: And the “Expression level of TNF-alpha in the colon” value ([4]; qPCR, FIG. 23)?
A: decreased

Q: And the “Degree of increase in disease activity index (DAI)” value ([4]; twice daily day 1 to day 7, FIG. 21)?
A: lower than that of the control group (vehicle)

— patent publication US20240300943A1, “NOVEL SALTS OF HETEROCYCLIC COMPOUND AS PROTEIN KINASE INHIBITOR AND USES THEREOF” (HK INNO.N CORPORATION, priority 2021, published 2024)
